Laboratory results reported in US12435045B2, “Tyrosine kinase inhibitors and pharmaceutical application thereof” (JIANGSU CONCORD BIOTECHNOLOGY CO., LTD, priority 2021, dated 2025).

Tested on: 40 L of mesothelioma cell lines
Test: cell plate cloning experiment to detect cell proliferation
Format: cell-based
Details: 30 μM pretreatment; 200 cells/well; results after 10 days; compared with gefitinib 30 μM; FIG. 2
Procedure: Effects of the compound prepared in Example 1 and gefitinib were tested and compared. Experiment 1 included cell plate cloning experiments to detect cell proliferation.
• (1) 30 μM of gefitinib was used to pretreat one group of 40 L of mesothelioma cell lines, 30 μM of the compound prepared in Example 1 were used to pretreat another group of 40 L of mesothelioma cell lines, and phosphate-buffered saline (PBS) was used as a blank control group; • (2) The 40 L of cell lines in different treatment groups were collected; the cells were counted under a microscope, the cells were inoculated in a six-well plate by adjusting the number of cells to 200 cells/well (2 mL) with corresponding complete medium, and the cells were cultured in an incubator containing 5% CO2 at 37° C.; • (3) Fresh complete medium was changed every 3 days; • (4) After about 7-10 days of continuous culture, the culture medium was discarded, the cells were carefully washed with 1×PBS 3 times, and 1 mL of 4% paraformaldehyde was added to each culture dish to fix the cells for 30 minutes. The paraformaldehyde was discarded, and the cells were washed again with 1×PBS 3 times. The cells were stained with crystal violet at room temperature for 10 min, the staining solution was discarded, and the cells were washed with 1×PBS 3 times; and • (5) the cells were pictured with a camera and counted for statistical analysis. 2. […]

Compound: COc1cc2ncnc(Nc3ccc(F)c(Cl)c3)c2cc1NC(=O)CBr [Example 1, 4-((4-fluoro-3-chlorophenyl)amino)-7-methoxy-6-((N-bromoacetyl)amino)quinazoline]
- ability in inhibiting the proliferation of tumor cells (plate cloning, colony count): significantly better ability in inhibiting the proliferation of tumor cells than gefitinib
